The nature of the test: Displacement of [3H]Cl-DPDPE from delta receptor in guinea pig brain homogenate.
Compound `COc1ccc2c3c1O[C@H]1C(=O)CC[C@@]4(NC(=O)CCc5ccc(Cl)cc5)[C@@H](C2)N(CC2CC2)CC[C@]314` [N-cyclopropylmethyl-14beta-[3'-(4'-chlorophenyl)propanamido]-7,8-dihydronorcodeinone] yielded a Ki of 5.1 nM. `COc1ccc2c3c1O[C@H]1C(=O)CC[C@@]4(NCCCc5ccc(Cl)cc5)[C@@H](C2)N(CC2CC2)CC[C@]314` [N-cyclopropylmethyl-14beta-[3'-(4'-chlorophenyl)propylamino]-7,8-dihydronorcodeinone] yielded a Ki of 31 nM.

In turn, `O=C1CC[C@@]2(NCCCc3ccc(Cl)cc3)[C@H]3Cc4ccc(O)c5c4[C@@]2(CCN3CC2CC2)[C@H]1O5` [N-cyclopropylmethyl-14beta-[3'-(4'-chlorophenyl)propylamino]-7,8-dihydronormorphinone] displayed a Ki of 1.1 nM.

`O=C(CCc1ccc(Cl)cc1)N[C@@]12CCC(=O)[C@@H]3Oc4c(O)ccc5c4[C@@]31CCN(CC1CC1)[C@@H]2C5` [N-cyclopropylmethyl-14beta-[3'-(4'-chlorophenyl)propanamido]-7,8-dihydronormorphinone]: the inhibition constant (Ki) was 0.6 nM. This Ki lies about 1.8-fold lower than the previous one.

The values above are taken from BindingDB's records for doi:10.1021/jm060595u (University of Bristol, 2006).
